42 molecules from patent publication US12065445B2, “CDK2 inhibitors and methods of using the same” (Cedilla Therapeutics, Inc., priority 2021, dated 2024) can be followed below.

Molecules are shown by their SMILES.

The assay has as its system Kuramochi cells. Nature of the assay: BrdU Cell Proliferation Assay. The format is cell-based. As to conditions: read-out: BrdU - KURAMOCHI.1: IC50. The protocol:
A BrdU assay was used as a measure of proliferation based on the DNA replication process of proliferating cells. BrdU, a pyrimidine analog, is added to the cell culture and incorporated into the DNA of proliferating cells. The presence of the BrdU analog was then measured through a colorimetric ELISA. After fixation and permeabilization of cells, peroxidase-conjugated antibody recognizing BrdU is added and allowed to incubate, followed by thorough washing to remove unbound antibody. In order to quantify the amount of bound antibody, peroxidase substrate is added and produces a color that can be measured at 450 nm.
On day −1, Kuramochi cells (Sekisui XenoTech JCRB0098) were seeded at 2,000 cells/well in columns 2-12 of a 96 well plate (Corning, CLS3596) in 150 μL media and allowed to adhere overnight at 37 degree with 5% CO2.
On day 0, the source plate was prepared by adding 10 mM compounds and performing 3-fold serial dilutions for a 10-point dose response of each compound. Using a multichannel pipette, 2 μL of the contents of the source plate were stamped into an intermediate plate with 500 μL of RPMI 1640 Media, GlutaMAX Supplement (Life Technologies, 61870127) in each well of a Nunc 96 DeepWell™ plate, non-treated 96 DeepWell plate, 2 mL/well, sterile, natural, 60/cs (Sigma Z717274) and mixed thoroughly. 50 μL from each well of this intermediate plate were added to 4 wells of a 96-well plate with previously seeded Kuramochi cells.
On day 4, the plates were developed using the BrdU ELISA Cell Proliferation Assay according to manufacturer's instructions (Roche, 11647229001). Briefly, BrdU was diluted 1:100 in Gibco®, OptiMEM® and 20 μL/well was added, shaken for 10 minutes at 350 rpm, and then returned to the incubator for 1 hour. Following incubation, the medium was discarded, and the cells were fixed by adding 200 μL of Fix/Denature solution. The anti-BrdU peroxidase antibody was diluted 1:1000 in OptiMEM, added at 100 μL/well, and incubated while shaking (350 rpm) for one hour. Three washes with PBS were performed to remove any unbound antibody, followed by the addition of 100 μL of substrate solution to each well. 25 μL/well of 1M sulfuric acid solution was then added to halt the reaction, and plates were read out using an Envision spectrophotometer (Perkin Elmer) set to read 450 nm absorbance. Background absorbance values from empty wells were subtracted from all samples and then normalized to DMSO treated wells.

As for `COCC1CCCN(C(=O)[C@@H](NC(=O)C2CN(C(=O)c3cnn(Cc4ccccc4)c3)CC23CN(C(=O)[C@H]2CC2(C)C)C3)[C@@H](C)OCc2ccccc2)C1` (stereo partly drawn) [I-64], the IC50 (in general, the point on the concentration scale where inhibition reaches its midpoint) lay in the range of 0.5 to 5 µM.

On to `CNC(=O)[C@@H](NC(=O)[C@H]1CN(C(=O)c2cnc(CC3CC3)s2)CC12CN(C(=O)[C@H]1CC1(C)C)C2)[C@@H](C)OCC1CCCCC1` [I-177B], for which the IC50 is more than 10 µM.

As to `CC1(C)C[C@@H]1C(=O)N1CC2(CN(C(=O)c3cnn(Cc4ccccc4)c3)C[C@@H]2C(=O)N[C@H]2CCCN(C(=O)c3ccccc3)C2)C1` [I-83B], the IC50 is more than 10 µM.

With `CC1(C)C[C@@H]1C(=O)N1CC2(CN(C(=O)c3cnn(Cc4ccccc4)c3)C[C@@H]2C(=O)N[C@@H]2CC[C@@H]2O)C1` [I-201A], the IC50 is more than 10 µM.

Turning to `CNC(=O)[C@@H](NC(=O)[C@@H]1CN(C(=O)c2cnn(Cc3ccc(F)cc3)c2)CC12CN(C(=O)[C@H]1CC1(C)C)C2)[C@@H](C)OCC1CCC(F)(F)CC1` [I-170], the IC50 was 0.5 to 5 µM.

Regarding `CNC(=O)[C@@H](NC(=O)[C@@H]1CN(C(=O)c2cnn(Cc3ccccc3)c2)CC12CN(C(=O)C(C)(C)C)C2)[C@@H](C)OCc1ccccc1` [I-65A], the IC50 was more than 10 µM.

With `CNC(=O)[C@@H](NC(=O)[C@@H]1CN(C(=O)c2cnn(Cc3ccccc3)c2)CC12CN(C(=O)CC1CC1)C2)[C@@H](C)OCC1CCCCC1` [I-56A], the IC50 is more than 10 µM.

Turning to `CC1(C)C[C@@H]1C(=O)N1CC2(CN(C(=O)c3cnn(Cc4ccccc4)c3)C[C@H]2C(=O)N2CCO[C@@H](Cc3ccccc3)C2)C1` [I-210], the IC50 is more than 10 µM.

In the case of `CNC(=O)[C@@H](NC(=O)[C@@H]1CN(C(=O)c2cnn(Cc3ccccc3)c2)CC12CN(C(=O)[C@H]1CC1(C)C)C2)C(C)(C)SCc1ccccc1` [I-171A, (S)-6-(1-benzyl-1H-pyrazole-4-carbonyl)-N—((R)-3-(benzylthio)-3-methyl-1-(methylamino)-1-oxobutan-2-yl)-2-((S)-2,2-dimethylcyclopropane-1-carbonyl)-2,6-diazaspiro[3.4]octane-8-carboxamide], the IC50 was more than 10 µM.

On to `CCCC(=O)N1CC2(C1)CN(C(=O)c1cnn(Cc3ccccc3)c1)C[C@@H]2C(=O)N[C@H](C(=O)NC)[C@@H](C)OCc1ccccc1` [I-60B], for which the IC50 is more than 10 µM.

As to `C[C@@H](OCc1ccccc1)[C@H](NC(=O)C1CN(C(=O)c2cnn(Cc3ccccc3)c2)CC12CN(C(=O)[C@H]1CC1(C)C)C2)C(=O)N1CCNCC1` (stereo partly drawn) [I-32], the IC50 is more than 10 µM.

On to `CNC(=O)[C@@H](NC(=O)[C@H]1CN(C(=O)c2cnn(Cc3ccccc3)c2)CC12CN(C(=O)C1(c3ccc(C(C)(C)C)cc3)CC1)C2)[C@@H](C)OCc1ccccc1` [I-80B], for which the IC50 was more than 10 µM.

For `CNC(=O)[C@@H](NC(=O)[C@H]1CN(C(=O)c2cnn(CC3CCN(C(C)=O)CC3)c2)CC12CN(C(=O)[C@H]1CC1(C)C)C2)[C@@H](C)OCc1ccccc1` [I-17B], the IC50 was more than 10 µM.

As for `CNC(=O)[C@H](CCCc1ccccc1)NC(=O)[C@@H]1CN(C(=O)c2cnn(Cc3ccccc3)c2)CC12CN(C(=O)[C@H]1CC1(C)C)C2` [I-101A], the IC50 was more than 10 µM.

With `CC1(C)C[C@@H]1C(=O)N1CC2(CN(C(=O)c3cnn(Cc4ccccc4)c3)C[C@H]2C(=O)N[C@H]2CCN(C3CC3)C2=O)C1` [I-243], the IC50 is more than 10 µM.

Take `C[C@@H](OCC1CCCCC1)[C@H](NC(=O)[C@H]1CN(C(=O)c2cn[nH]c2)CC12CN(C(=O)[C@H]1CC1(C)C)C2)C(=O)N1CCCCC1` [I-151B]: the IC50 was more than 10 µM.

On to `CNC(=O)[C@@H](NC(=O)[C@H]1CN(C(=O)c2scnc2C(F)(F)F)CC12CN(C(=O)[C@H]1CC1(C)C)C2)[C@@H](C)OCC1CCCCC1` [I-163B], for which the IC50 was more than 10 µM.

Take `CNC(=O)[C@@H](NC(=O)[C@@H]1CN(C(=O)c2cnn(Cc3ccccc3)c2)CC12CN(C(=O)[C@H]1CC1(C)C)C2)[C@@H](C)OCC1CCC(C(F)(F)F)CC1` (stereo partly drawn) [I-141A]: the IC50 fell in the range of 0.5 to 5 µM.

For the molecule `CNC(=O)[C@@H](NC(=O)[C@@H]1CN(C(=O)c2cnn(Cc3ccccc3)c2)CC12CN(C(=O)[C@H]1CC1(C)C)C2)[C@@H](C)O` [I-88A, (S)-6-(1-benzyl-1H-pyrazole-4-carbonyl)-2-((S)-2,2-dimethylcyclopropane-1-carbonyl)-N-((2S,3R)-3-hydroxy-1-(methylamino)-1-oxobutan-2-yl)-2,6-diazaspiro[3.4]octane-8-carboxamide], the IC50 was more than 10 µM.

Consider `CNC(=O)[C@@H](NC(=O)[C@@H]1CN(Cc2cnn(Cc3ccccc3)c2)CC12CN(C(=O)[C@H]1CC1(C)C)C2)[C@@H](C)OCc1ccccc1` [I-16A], for which the IC50 is more than 10 µM.

For `CO[C@@H]1CC[C@H](NC(=O)[C@@H]2CN(C(=O)c3cnn(Cc4ccccc4)c3)CC23CN(C(=O)[C@H]2CC2(C)C)C3)C1` [I-248], the half-inhibitory concentration (IC50) was more than 10 µM.

As to `CNC(=O)[C@H](CCCc1ccccc1)NC(=O)[C@H]1CN(C(=O)c2cnn(Cc3ccccc3)c2)CC12CN(C(=O)[C@H]1CC1(C)C)C2` [I-101B], the IC50 was more than 10 µM.

As to `CO[C@H]1COCC[C@@H]1NC(=O)[C@H]1CN(C(=O)c2cnn(Cc3ccccc3)c2)CC12CN(C(=O)[C@H]1CC1(C)C)C2` [I-131B], the IC50 was more than 10 µM.

Turning to `COC(=O)[C@H](CO)NC(=O)[C@H]1CN(C(=O)c2cnn(Cc3ccccc3)c2)CC12CN(C(=O)[C@H]1CC1(C)C)C2` [I-209B], the IC50 is more than 10 µM.

Regarding `CNC(=O)[C@@H](NC(=O)C1CN(C(=O)c2cnn(Cc3cccnc3)c2)CC12CN(C(=O)C1CC1(C)C)C2)[C@@H](C)OCc1ccccc1` (stereo partly drawn) [I-15], the IC50 is more than 10 µM.

With `CNC(=O)[C@@H](NC(=O)[C@H]1CN(C(=O)c2cncs2)CC12CN(C(=O)[C@H]1CC1(C)C)C2)[C@@H](C)OCc1ccccc1` [I-24B], the IC50 is more than 10 µM.

Consider `CNC(=O)[C@@H](NC(=O)[C@@H]1CN(C(=O)c2cnn(Cc3ccccc3)c2)CC12CN(C(=O)C1(CC3CC3)CC1)C2)[C@@H](C)OCc1ccccc1` [I-116A], for which the IC50 is more than 10 µM.

Turning to `CNC(=O)[C@@H](NC(=O)[C@@H]1CN(C(=O)c2c[nH]c3ccccc23)CC12CN(C(=O)[C@H]1CC1(C)C)C2)[C@@H](C)OCc1ccccc1` [I-72A], the IC50 was more than 10 µM.

For `CNC(=O)[C@@H](NC(=O)[C@H]1CN(C(=O)c2ccncc2)CC12CN(C(=O)[C@H]1CC1(C)C)C2)[C@@H](C)OCc1ccccc1` [I-46B], the IC50 was more than 10 µM.

As to `CNC(=O)[C@@H](NC(=O)[C@H]1CN(C(=O)c2cnc(C(C)(C)C)s2)CC12CN(C(=O)[C@H]1CC1(C)C)C2)[C@@H](C)OCC1CCCCC1` [I-229B], the IC50 is more than 10 µM.

Consider `C[C@@H](OCc1ccccc1)[C@H](NC(=O)C1CN(C(=O)c2cnn(Cc3ccccc3)c2)CC12CN(C(=O)[C@H]1CC1(C)C)C2)C(=O)NCCN` (stereo partly drawn) [I-31], for which the IC50 was more than 10 µM.

Take `CC1(C)C[C@@H]1C(=O)N1CC2(CN(C(=O)c3cnn(Cc4ccccc4)c3)C[C@H]2C(=O)N[C@H]2CCc3cc(Cl)ccc32)C1` [I-120A]: the IC50 was more than 10 µM.

With `CNC(=O)[C@@H](NC(=O)[C@H]1CN(C(=O)c2ccccn2)CC12CN(C(=O)[C@H]1CC1(C)C)C2)[C@@H](C)OCc1ccccc1` [I-45B], the IC50 is more than 10 µM.

With `CNC(=O)[C@@H](NC(=O)[C@H]1CN(C(=O)c2c[nH]c3ccccc23)CC12CN(C(=O)[C@H]1CC1(C)C)C2)[C@@H](C)OCc1ccccc1` [I-72B], the IC50 is more than 10 µM.

In the case of `CNC(=O)[C@@H](NC(=O)[C@@H]1CN(C(=O)c2cnn(Cc3ccccc3)c2)CC12CN(C(=O)CC1(COC)CC1)C2)[C@@H](C)OCc1ccccc1` [I-82A], the IC50 is more than 10 µM.

Turning to `CNC(=O)[C@@H](NC(=O)[C@H]1CN(C(=O)c2cnn(CC(F)(F)F)c2)CC12CN(C(=O)CC1CC1)C2)[C@@H](C)OCc1ccccc1` [I-43B], the IC50 was more than 10 µM.

Turning to `CNC(=O)[C@H](COCc1ccccc1)NC(=O)[C@@H]1CN(C(=O)c2cnn(Cc3ccccc3)c2)CC12CN(C(=O)C(C)(C)C)C2` [I-100A], the IC50 is more than 10 µM.

As for `CNC(=O)[C@@H](NC(=O)[C@H]1CN(C(=O)c2cnn(Cc3ccccc3)c2)CC12CN(C(=O)C(C)(C)C)C2)[C@@H](C)OCc1ccccc1` [I-65B], the IC50 was more than 10 µM.

As to `Cc1noc([C@H](C)NC(=O)[C@H]2CN(C(=O)c3cnn(Cc4ccccc4)c3)CC23CN(C(=O)[C@H]2CC2(C)C)C3)n1` [I-158B], the IC50 is more than 10 µM.

With `CNC(=O)[C@@H](NC(=O)[C@H]1CN(C(=O)c2cncs2)CC12CN(C(=O)CC1CC1)C2)[C@@H](C)OCC1CCCCC1` [I-103B], the IC50 was more than 10 µM.

Take `C[C@H](NC(=O)[C@@H]1CN(C(=O)c2cnn(Cc3ccccc3)c2)CC12CN(C(=O)[C@H]1CC1(C)C)C2)c1cccc(F)c1` [I-127A]: the IC50 is more than 10 µM.

On to `CNC(=O)[C@@H](NC(=O)[C@@H]1CN(C(=O)c2scnc2C2CCCC2)CC12CN(C(=O)[C@H]1CC1(C)C)C2)[C@@H](C)OCC1CCCCC1` [I-224B], for which the IC50 was more than 10 µM.
